Laboratory results published in patent US5700804A, “Pharmaceutical compounds” (Xenova Limited, priority 1992, dated 1997).

Biological target: PAI-1 (Homo sapiens, UniProt P05121)
Assay: PAI chromogenic substrate assay (first S2251 assay, tPA/plasminogen system)
Format: biochemical
Protocol: In this assay, a compound is incubated with PAI-1 prior to addition to the tPA assay system. Inhibition of PAI-1 results in the production of plasmin from plasminogen. In turn, plasmin cleaves the chromogenic substrate S2251 (Kabi Vitrum) producing pNA (p-nitroaniline) which is detected spectrophotometrically at 405 nm (K. Nilsson et al, Fibrinolysis (1987) 1, 163-168).
Compounds of formula (A) were tested in a PAI chromogenic substrate assay. In the first assay (K. Nilsson, Fibrinolysis (1987) 1, 163-168) each compound was incubated with PAI-1 prior to addition to the tPA assay system. […] In turn, the plasmin cleaved the chromogenic substrate S2251 (Kabi-Vitrum) producing pNA (p-nitroaniline) which was detected spectrophotometrically at 405 nm.

PAI-1, sequence (P05121 24-402): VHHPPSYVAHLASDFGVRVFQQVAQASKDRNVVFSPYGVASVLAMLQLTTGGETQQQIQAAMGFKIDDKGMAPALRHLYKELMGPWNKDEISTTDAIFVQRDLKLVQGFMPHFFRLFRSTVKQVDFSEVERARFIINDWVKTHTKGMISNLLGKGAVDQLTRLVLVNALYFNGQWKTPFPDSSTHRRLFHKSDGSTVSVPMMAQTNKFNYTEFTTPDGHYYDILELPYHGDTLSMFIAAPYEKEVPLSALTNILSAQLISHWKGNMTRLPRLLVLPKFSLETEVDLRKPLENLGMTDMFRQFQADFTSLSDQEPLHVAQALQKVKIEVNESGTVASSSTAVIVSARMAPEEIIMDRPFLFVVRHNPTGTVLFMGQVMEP

| Inhibition of PAI-1 in the first S2251 chromogenic substrate assay (Concentration 3.75 μm) [%] | Inhibition of PAI-1 in the first S2251 chromogenic substrate assay (Concentration 7.5 μm) [%] | Inhibition of PAI-1 in the first S2251 chromogenic substrate assay (Concentration 15 μm) [%] | Inhibition of PAI-1 in the first S2251 chromogenic substrate assay (Concentration 30 μm) [%] | Inhibition of PAI-1 in the first S2251 chromogenic substrate assay (Concentration 60 μm) [%] | Inhibition of PAI-1 in the first S2251 chromogenic substrate assay (Concentration 12.5 μm) [%] | Inhibition of PAI-1 in the first S2251 chromogenic substrate assay (Concentration 25 μm) [%] | Inhibition of PAI-1 in the first S2251 chromogenic substrate assay (Concentration 50 μm) [%] | Inhibition of PAI-1 in the first S2251 chromogenic substrate assay (Concentration 100 μm) [%] | SMILES | Inhibition of PAI-1 in the first S2251 chromogenic substrate assay (Concentration 6.25 μm) [%] |
| --- | --- | --- | --- | --- | --- | --- | --- | --- | --- | --- |
| – | – | – | – | – | 1 | 1 | 13 | 53 | O=c1[nH]/c(=C\c2ccccc2)c(=O)[nH]/c1=C\c1ccccc1 [Compound 45, (3Z,6Z)-3,6-Dibenzylidene-2,5-piperazinedione] | – |
| – | – | – | – | – | 14 | 38 | 42 | 39 | COc1ccc(/C=c2\[nH]c(=O)/c(=C/c3ccc(S(C)(=O)=O)cc3)[nH]c2=O)cc1 [Compound 46, (3Z,6Z)-3-(4-Methoxybenzylidene)-6-(4-methylsulfonylbenzylidene)-2,5-piperazinedione] | – |
| – | – | – | – | – | 1 | 8 | 47 | 60 | COc1ccc(/C=c2\[nH]c(=O)/c(=C/c3ccc(OC(C)C)cc3)[nH]c2=O)cc1 [Compound 49, (3Z,6Z)-3-(4-isopropoxybenzylidene)-6-(4-methoxybenzylidene)-2,5-piperazinedione] | – |
| – | – | – | – | – | 2 | 22 | 37 | 62 | COc1ccc(/C=c2\[nH]c(=O)/c(=C/c3ccc(C(C)(C)C)cc3)[nH]c2=O)cc1 [Compound 50, (3Z,6Z)-3-(4-methoxybenzylidene)-6-(4-tert-butylbenzylidene)-2,5-piperazinedione] | – |

More lines, now with the values behind:

| SMILES | Inhibition of PAI-1 in the first S2251 chromogenic substrate assay (Concentration 3.75 μm) [%] | Inhibition of PAI-1 in the first S2251 chromogenic substrate assay (Concentration 7.5 μm) [%] | Inhibition of PAI-1 in the first S2251 chromogenic substrate assay (Concentration 15 μm) [%] | Inhibition of PAI-1 in the first S2251 chromogenic substrate assay (Concentration 30 μm) [%] | Inhibition of PAI-1 in the first S2251 chromogenic substrate assay (Concentration 60 μm) [%] | Inhibition of PAI-1 in the first S2251 chromogenic substrate assay (Concentration 12.5 μm) [%] | Inhibition of PAI-1 in the first S2251 chromogenic substrate assay (Concentration 25 μm) [%] | Inhibition of PAI-1 in the first S2251 chromogenic substrate assay (Concentration 50 μm) [%] | Inhibition of PAI-1 in the first S2251 chromogenic substrate assay (Concentration 100 μm) [%] | Inhibition of PAI-1 in the first S2251 chromogenic substrate assay (Concentration 6.25 μm) [%] |
| --- | --- | --- | --- | --- | --- | --- | --- | --- | --- | --- |
| CC(=O)Nc1ccc(/C=c2\[nH]c(=O)/c(=C/c3ccc(Cl)cc3)[nH]c2=O)cc1 [Compound 42, (3Z,6Z)-3-(4-Acetamidobenzylidene)-6-(4-chlorobenzylidene)-2,5-piperazinedione] | 1 | 4 | 59 | 57 | 58 | – | – | – | – | – |
| CC(=O)OCc1ccc(/C=c2\[nH]c(=O)/c(=C/c3ccccc3)[nH]c2=O)cc1 [Compound 43, (3Z,6Z)-3-(4-Acetoxymethylbenzylidene)-6-benzylidene-2,5-piperazinedione] | – | – | – | – | – | 1 | 3 | 45 | 59 | 1 |
| CC(=O)NCc1ccc(/C=c2\[nH]c(=O)/c(=C/c3ccccc3)[nH]c2=O)cc1 [Compound 44, (3Z,6Z)-3-(4-Acetamidomethylbenzylidene)-6-benzylidene-2,5-piperazinedione] | – | – | – | – | – | 1 | 1 | 2 | 51 | 1 |
| CCCCOc1ccc(/C=c2\[nH]c(=O)/c(=C/c3ccc(OC)cc3)[nH]c2=O)cc1 [Compound 47, (3Z,6Z)-3-(4-Butoxybenzylidene)-6-(4-methoxybenzylidene)-2,5-piperazinedione] | – | – | – | – | – | 14 | 14 | 58 | 75 | – |
| CCCCOc1ccc(/C=c2\[nH]c(=O)/c(=C/c3ccccc3)[nH]c2=O)cc1 [Compound 48, (3Z,6Z)-6-Benzylidene-3-(4-butoxybenzylidene)-2,5-piperazinedione] | – | – | – | – | – | 3 | 26 | 57 | 73 | – |
